Results as given in patent US8637537B2, “Serine/threonine kinase inhibitors” (Genentech, Inc., priority 2011, dated 2014).

What follows are compounds tested against T1, human recombinant GST-PAK1-KD protein (Homo sapiens, UniProt Q13153) (assay: GST-PAK1-KD (kinase domain) biochemical assay, microfluidic mobility shift). Conditions: not given.
T1 construct: residues #249-545 of human PAK1, UniProtKP/Swiss Q13153; His6 (N); made in house; host or cells: Sf9 insect cells, pAcGP67 baculovirus expression vector
Description: Activity of human recombinant GST-PAK1-KD protein was assessed in vitro assay by observing the phosphorylation of a fluorogenic peptide substrate.
The peptide substrate is a consensus sequence based on various PAK1 substrates reported in the scientific literature. […] Incubations were carried out at 22° C. in MatriCal MP101 384-well Metriplates™. […] Following the 30-minute incubation, the assay mixtures were quenched by the addition of 3 μL of 250 mM EDTA, and the substrate and phosphorylated product were separated by capillary electrophoresis and detected using LabChip® Caliper 3000 (Caliper Life Sciences).

T1 sequence (Q13153 249-545): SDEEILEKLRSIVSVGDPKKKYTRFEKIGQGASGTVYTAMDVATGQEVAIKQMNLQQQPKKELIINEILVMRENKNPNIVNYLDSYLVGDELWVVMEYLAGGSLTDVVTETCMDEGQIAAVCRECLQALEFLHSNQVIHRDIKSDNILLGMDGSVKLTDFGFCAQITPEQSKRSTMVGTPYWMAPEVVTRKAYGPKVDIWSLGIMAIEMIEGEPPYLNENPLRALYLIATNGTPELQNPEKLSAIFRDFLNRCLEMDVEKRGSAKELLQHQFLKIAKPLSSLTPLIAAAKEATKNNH

For `c1cc(Nc2cc(C3CC3)[nH]n2)nc(NCc2ccc3[nH]ccc3c2)n1` [I-15, N^2-((1H-Indol-5-yl)methyl)-N^4-(5-cyclopropyl-1H-pyrazol-3-yl)pyrimidine-2,4-diamine], which Ki is on record?
Its Ki is < 50 nM.

Same assay, conditions: Ki, Table I, PAK1 Ki class

With `C[C@H](Nc1nccc(Nc2cc(C3CC3)[nH]n2)n1)c1ccc2[nH]cnc2c1` [I-5, N^2-[(1S)-1-(1H-Benzimidazol-5-yl)ethyl]-N^4-(5-cyclopropyl-1H-pyrazol-3-yl)pyrimidine-2,4-diamine] as the compound, how does the Ki read?
The Ki was < 50 nM.

With `Clc1c(CNc2nccc(Nc3cc(C4CC4)[nH]n3)n2)ccc2[nH]cnc12` [I-3, N^2-[(4-Chloro-1H-benzimidazol-5-yl)methyl]-N^4-(5-cyclopropyl-1H-pyrazol-3-yl)pyrimidine-2,4-diamine] as the compound, how does the Ki read?
The Ki was < 50 nM.

Same assay, conditions: Table I, PAK1 Ki class; read-out: Ki

Which Ki does the source give for `C[C@@H](Nc1ncc(F)c(Nc2cc(C3CC3)[nH]n2)n1)c1cccc2[nH]ccc12` [I-100, N^4-(5-cyclopropyl-1H-pyrazol-3-yl)-5-fluoro-N^2-[(1R)-1-(1H-indol-4-yl)ethyl]pyrimidine-2,4-diamine] here?
The Ki was > 1000 nM.

Which Ki does the source give for `FC(F)(F)c1cc(Nc2cc(C3CC3)[nH]n2)nc(NCc2cccc3[nH]ccc23)n1` [I-41, N^2-((1H-indol-4-yl)methyl)-N^4-(5-cyclopropyl-1H-pyrazol-3-yl)-6-(trifluoromethyl)pyrimidine-2,4-diamine] here?
The Ki was 250 to 1000 nM.

`Cn1ccc2cc(CNc3nccc(Nc4cc(C5CC5)[nH]n4)n3)ccc21` [I-33, N^4-(5-Cyclopropyl-1H-pyrazol-3-yl)-N^2-((1-methyl-1H-indol-5-yl)methyl)pyrimidine-2,4-diamine] was tested. Which Ki did it give?
The Ki was 250 to 1000 nM.

For `Fc1ccc(CNc2nccc(Nc3cc(C4CC4)[nH]n3)n2)c2cc[nH]c12` [I-47, N^4-(5-cyclopropyl-1H-pyrazol-3-yl)-N^2-((7-fluoro-1H-indol-4-yl)methyl)pyrimidine-2,4-diamine], which Ki is on record?
The Ki was 250 to 1000 nM.

Which Ki does the source give for `CC(C)c1cc(Nc2ccnc(NCc3cccc4[nH]ccc34)n2)n[nH]1` [I-58, N^2-((1H-indol-4-yl)methyl)-N^4-(5-isopropyl-1H-pyrazol-3-yl)pyrimidine-2,4-diamine] here?
The Ki was 50 to 250 nM.

Which Ki does the source give for `C[C@H](Nc1nccc(Nc2cc(C3CCCO3)[nH]n2)n1)c1ccc2[nH]cnc2c1` (stereo partly drawn) [I-44, N^2—((S)-1-(1H-benzo[d]imidazol-5-yl)ethyl)-N^4-(5-(tetrahydrofuran-2-yl)-1H-pyrazol-3-yl)pyrimidine-2,4-diamine] here?
The Ki was 50 to 250 nM.

For `C[C@H](Nc1nccc(Nc2cc([C@H]3C[C@H]3F)[nH]n2)n1)c1ccc2[nH]ccc2c1` [I-65, N^2—((S)-1-(1H-indol-5-yl)ethyl)-N^4-(5-((1R,2R)-2-fluorocyclopropyl)-1H-pyrazol-3-yl)pyrimidine-2,4-diamine], which Ki is on record?
Its Ki is < 50 nM.

With `Fc1cnc(NCc2cccc3[nH]cnc23)nc1Nc1cc(C2CC2)n[nH]1` [I-97, N^2-((3H-benzo[d]imidazol-4-yl)methyl)-N^4-(3-cyclopropyl-1H-pyrazol-5-yl)-5-fluoropyrimidine-2,4-diamine] as the compound, how does the Ki read?
Its Ki is < 50 nM.

How did the Ki turn out when `C[C@H](Nc1nccc(Nc2cc(C3CCCC3)[nH]n2)n1)c1ccc2[nH]ccc2c1` [I-113, (S)—N^2-(1-(1H-indol-5-yl)ethyl)-N^4-(5-cyclopentyl-1H-pyrazol-3-yl)pyrimidine-2,4-diamine] was run?
The Ki was < 50 nM.

How did the Ki turn out when `Cc1cc(Nc2ccnc(NCc3cccc4[nH]ccc34)n2)n[nH]1` [I-56, N^2-((1H-indol-4-yl)methyl)-N^4-(5-methyl-1H-pyrazol-3-yl)pyrimidine-2,4-diamine] was run?
The Ki was > 1000 nM.

With `C[C@H](Nc1nccc(Nc2cc(C3CCC3)[nH]n2)n1)c1ccc2[nH]cnc2c1` [I-1, (S)—N^2-(1-(1H-benzo[d]imidazol-5-yl)ethyl)-N^4-(5-cyclobutyl-1H-pyrazol-3-yl)pyrimidine-2,4-diamine] as the compound, how does the Ki read?
The Ki was < 50 nM.

Which Ki does the source give for `Fc1cc(CNc2ncc(F)c(Nc3cc(C4CC4)[nH]n3)n2)c2cc[nH]c2c1` [I-91, N^4-(5-Cyclopropyl-1H-pyrazol-3-yl)-5-fluoro-N^2-((6-fluoro-1H-indol-4-yl)methyl)pyrimidine-2,4-diamine diformate] here?
The Ki was 250 to 1000 nM.

For `CC(C)(O)c1cc(Nc2cc(C3CC3)[nH]n2)nc(NCc2ccc3[nH]cnc3c2Cl)n1` [I-84, 2-(2-((4-chloro-1H-benzo[d]imidazol-5-yl)methylamino)-6-(5-cyclopropyl-1H-pyrazol-3-ylamino)pyrimidin-4-yl)propan-2-ol], which Ki is on record?
Its Ki is < 50 nM.

How did the Ki turn out when `Fc1cnc(NCc2ccc3[nH]cnc3c2Cl)nc1Nc1cc(C2CC2)[nH]n1` [I-117, N^2-((4-chloro-1H-benzo[d]imidazol-5-yl)methyl)-N^4-(5-cyclopropyl-1H-pyrazol-3-yl)-5-fluoropyrimidine-2,4-diamine] was run?
Its Ki is < 50 nM.

How did the Ki turn out when `c1cc(Nc2cc(C3CC3)[nH]n2)nc(NCc2ccc3cn[nH]c3c2)n1` [I-103, N^4-(5-cyclopropyl-1H-pyrazol-3-yl)-N^2-(1H-indazol-6-ylmethyl)pyrimidine-2,4-diamine] was run?
Its Ki is > 1000 nM.

`C[C@H](Nc1nccc(Nc2cc([C@H]3C[C@@H]3c3ccccc3)[nH]n2)n1)c1ccc2[nH]cnc2c1` (stereo in doubt) [I-24, N^2—((S)-1-(1H-benzo[d]imidazol-5-yl)ethyl)-N^4-(5-((trans)-2-phenylcyclopropyl)-1H-pyrazol-3-yl)pyrimidine-2,4-diamine] was tested. Which Ki did it give?
Its Ki is 50 to 250 nM.

Which Ki does the source give for `CN(Cc1cccc2[nH]ccc12)c1nccc(Nc2cc(C3CC3)[nH]n2)n1` [I-40, N^2-((1H-Indol-4-yl)methyl)-N^4-(5-cyclopropyl-1H-pyrazol-3-yl)-N^2-methylpyrimidine-2,4-diamine] here?
Its Ki is 50 to 250 nM.

Same assay, conditions: Table II, PAK1 Ki class; read-out: Ki

Which Ki does the source give for `CN(C)CCN(Cc1cc(F)cc2[nH]ncc12)c1ncc(F)c(Nc2cc(C3CC3)[nH]n2)n1` [II-86, N^4-(5-cyclopropyl-1H-pyrazol-3-yl)-N^2-(2-(dimethylamino)ethyl)-5-fluoro-N^2-((6-fluoro-1H-indazol-4-yl)methyl)pyrimidine-2,4-diamine] here?
Its Ki is < 50 nM.

`Cc1nc2c(CNc3ncc(F)c(Nc4cc(C5CC5)[nH]n4)n3)cc(Cl)cc2[nH]1` [II-32, N^2-((6-Chloro-2-methyl-1H-benzo[d]imidazol-4-yl)methyl)-N^4-(5-cyclopropyl-1H-pyrazol-3-yl)-5-fluoropyrimidine-2,4-diamine] was tested. Which Ki did it give?
The Ki was 50 to 250 nM.

How did the Ki turn out when `Fc1cc(CNc2nccc(Nc3cc([C@H]4C[C@@H]4F)[nH]n3)n2)c2cc[nH]c2c1` [II-82, N^2-((6-fluoro-1H-indol-4-yl)methyl)-N^4-(5-((1R,2S)-2-fluorocyclopropyl)-1H-pyrazol-3-yl)pyrimidine-2,4-diamine] was run?
Its Ki is < 50 nM.

Which Ki does the source give for `Fc1cc(CNc2nccc(Nc3cc([C@H]4C[C@@H]4F)[nH]n3)n2)c2cn[nH]c2c1` [II-60, N^2-((6-fluoro-1H-indazol-4-yl)methyl)-N^4-(5-((1R,2S)-2-fluorocyclopropyl)-1H-pyrazol-3-yl)pyrimidine-2,4-diamine] here?
The Ki was < 50 nM.

How did the Ki turn out when `CN(C)CCN(Cc1cccc2[nH]ccc12)c1nccc(Nc2cc(C3CC3)[nH]n2)n1` [II-89, N^2-((1H-indol-4-yl)methyl)-N^4-(5-cyclopropyl-1H-pyrazol-3-yl)-N^2-(2-(dimethylamino)ethyl)-pyrimidine-2,4-diamine] was run?
Its Ki is < 50 nM.

How did the Ki turn out when `c1cc(Nc2cc(C3CC3)[nH]n2)nc(N(Cc2ccc3[nH]cnc3c2)C2CCNCC2)n1` [II-90, N^2-((1H-benzo[d]imidazol-5-yl)methyl)-N^4-(5-cyclopropyl-1H-pyrazol-3-yl)-N^2-(piperidin-4-yl)pyrimidine-2,4-diamine] was run?
Its Ki is < 50 nM.

How did the Ki turn out when `Fc1cnc(N(Cc2ccc3[nH]cnc3c2)C2CCCC2)nc1Nc1cc(C2CC2)[nH]n1` [II-108, N^2-((1H-benzo[d]imidazol-5-yl)methyl)-N^2-cyclopentyl-N^4-(5-cyclopropyl-1H-pyrazol-3-yl)-5-fluoropyrimidine-2,4-diamine] was run?
Its Ki is 50 to 250 nM.

`CN(C)CCN(Cc1cccc2[nH]ccc12)c1nccc(Nc2cc([C@@H]3C[C@H]3F)[nH]n2)n1` [II-83, N^2-((1H-indol-4-yl)methyl)-N^2-(2-(dimethylamino)ethyl)-N^4-(5-((1S,2R)-2-fluorocyclopropyl)-1H-pyrazol-3-yl)pyrimidine-2,4-diamine] was tested. Which Ki did it give?
The Ki was < 50 nM.

With `C[C@H](c1cc(Nc2ccnc(NCc3ccc4[nH]cnc4c3Cl)n2)n[nH]1)C1CC1` [II-79, (S)-N^2-((4-chloro-1H-benzo[d]imidazol-5-yl)methyl)-N^4-(5-(1-cyclopropylethyl)-1H-pyrazol-3-yl)pyrimidine-2,4-diamine] as the compound, how does the Ki read?
The Ki was < 50 nM.

With `Cc1c(CNc2ncc(F)c(Nc3cc(C4CC4)[nH]n3)n2)ccc2[nH]cnc12` [II-8, N^4-(5-Cyclopropyl-1H-pyrazol-3-yl)-5-fluoro-N^2-[(4-methyl-1H-benzimidazol-5-yl)methyl]pyrimidine-2,4-diamine] as the compound, how does the Ki read?
Its Ki is 50 to 250 nM.

For `C[C@H](Nc1ncc(F)c(Nc2cc(C3CC3)[nH]n2)n1)c1cc(F)cc2[nH]ncc12` [II-71, (S)-N^4-(5-cyclopropyl-1H-pyrazol-3-yl)-5-fluoro-N^2-(1-(6-fluoro-1H-indazol-4-yl)ethyl)pyrimidine-2,4-diamine], which Ki is on record?
The Ki was < 50 nM.

Which Ki does the source give for `Cc1n[nH]c2cc(Cl)cc(CNc3nccc(Nc4cc(C5CC5)[nH]n4)n3)c12` [II-12, N^2-((6-Chloro-3-methyl-1H-indazol-4-yl)methyl)-N^4-(5-cyclopropyl-1H-pyrazol-3-yl)pyrimidine-2,4-diamine] here?
The Ki was < 50 nM.

With `CNCCN(Cc1cc(F)cc2[nH]ncc12)c1nccc(Nc2cc(C3CC3)[nH]n2)n1` [II-47, N^4-(5-cyclopropyl-1H-pyrazol-3-yl)-N^2-((6-fluoro-1H-indazol-4-yl)methyl)-N^2-(2-(methylamino)ethyl)pyrimidine-2,4-diamine] as the compound, how does the Ki read?
Its Ki is < 50 nM.

Which Ki does the source give for `C[C@@H](O)CN(Cc1cc(F)cc2[nH]ncc12)c1nccc(Nc2cc(C3CC3)[nH]n2)n1` [II-67, (R)-1-((4-((5-cyclopropyl-1H-pyrazol-3-yl)amino)pyrimidin-2-yl)((6-fluoro-1H-indazol-4-yl)methyl)amino)propan-2-ol] here?
The Ki was < 50 nM.
